Tests used:
[1] = system: H37Rv; parameters: species or system mice; details: mouse, in vivo, po
[2] = Oral pharmacokinetic studies in mice, peripheral total blood; details: female, C57BL/6, mouse, whole blood
[3] = Vero cytotoxicity assay (MTT); details: African green monkey, Vero cells
[4] = molecular target: human serum albumin (HSA) (Homo sapiens, UniProt P02768); format: in vitro ADME
Method: Standard physical chemical property determination methods were used. Please see the Supporting Information for details.
Protocol S4. Determination of compounds binding to human serum albumin (HSA).
The determination of compounds binding to human serum albumin (HSA) was carried out by retention time measurements using immobilized HSA HPLC columns obtained from Chiral Technologies Ltd, France. The column dimensions were 50x3 mm. The mobile phase was 50 mM ammonium acetate buffer pH 7.4 and HPLC grade 2-propanol. HPLC Method: flow rate 1.8 ml/min applying 2.5 min 2-propanol gradient up to 30%. From 2.5 min to 4.5 min the 2-propanol concentration in the mobile phase was kept at 30%. From 4.5 min to 4.6 min, the 2-propanol concentration was decreased to 0% and kept like that until the end of the gradient run which was 6 min. A calibration set of compounds was first analyzed for which plasma protein binding data were available: Warfarin, Nizatidine, Bromazepam, Carbamazepine, Budesonide, Nicardipine, Indomethacine, Piroxicam, Naproxen. The calculation of the HSA binding data expressed as %HSA was carried out as described previously.

[5] = in vitro; format: in vitro ADME, mouse
Method: (§1) Protocol S6. Microsomal fraction stability experimental procedure.
(§2) Pooled mouse and human liver microsomes are purchased from Xenotech. Microsomes (final protein concentration 0.5 mg/mL, MgCl2 (final concentration = 5 mM) and test compound (final substrate concentration = 0.5 µM; final DMSO concentration = 0.5%) in 0.1M phosphate buffer pH 7.4 were pre-incubated at 37°C prior to the addition of NADPH (final concentration = 1 mM) to initiate the reaction. The final incubation volume was 600 µL. A control incubation was included for each compound tested where 0.1 M phosphate buffer pH 7.4 is added instead of NADPH (minus NADPH). One control compound was included with each species. All incubations were performed singularly for each test compound. Each compound was incubated for 30 minutes and samples (90 µL) of incubate were taken at 0, 5, 15, 20 and 30 min. The control (minus NADPH) was sampled at 30 min only. The reactions were stopped by the addition of sample to 200 µL Acetonitrile:Methanol 3:1 containing internal standard. The terminated samples were centrifuged at 2.500 rpm for 20 min at 4°C to precipitate the protein.
(§3) Quantitative Analysis: following protein precipitation, the samples were analyzed using specific […]
(§4) Data Analysis: from a plot of ln peak area ratio (compound peak area/internal standard peak area) against time, the gradient of the line was determined. Subsequently, half-life and intrinsic clearance were calculated using the equations below:
(§5) Elimination rate constant (k) = (- gradient)
(§6) Half life (t1/2) (min) = […]
(§7) Intrinsic Clearance (CLint) (mL/min/g protein) = […] where V=Incubation volume mL/g microsomal protein.

[6] = in vitro; format: in vitro ADME, human
Method: as §1, §2, §3, §4, §5, §6, §7

[7] = system: Vero cells
[8] = system: HepG2 cells
[9] = at 1 µM

human serum albumin (HSA), sequence (P02768 25-609): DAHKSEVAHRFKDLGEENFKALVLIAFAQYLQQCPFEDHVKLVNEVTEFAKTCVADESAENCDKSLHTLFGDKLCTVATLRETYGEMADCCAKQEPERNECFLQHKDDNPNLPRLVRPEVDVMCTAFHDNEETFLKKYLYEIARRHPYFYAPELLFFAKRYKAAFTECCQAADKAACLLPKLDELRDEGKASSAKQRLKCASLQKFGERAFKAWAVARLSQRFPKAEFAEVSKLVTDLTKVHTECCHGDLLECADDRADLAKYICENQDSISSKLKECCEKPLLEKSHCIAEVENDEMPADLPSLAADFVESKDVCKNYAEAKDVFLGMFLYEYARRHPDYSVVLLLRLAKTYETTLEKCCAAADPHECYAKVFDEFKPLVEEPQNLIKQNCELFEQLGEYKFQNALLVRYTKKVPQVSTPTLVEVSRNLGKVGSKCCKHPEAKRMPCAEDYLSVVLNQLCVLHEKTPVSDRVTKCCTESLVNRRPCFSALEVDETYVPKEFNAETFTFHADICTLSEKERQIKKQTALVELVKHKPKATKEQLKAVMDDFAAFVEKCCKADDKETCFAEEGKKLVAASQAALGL

Compound | ED99 (dose that reduces 2 logs bacterial burden in the lungs of mice; 95% confidence interval in parenthesis) [1] | AUC(0-inf) ([2]; 27.5 mg/kg) | CC50 at 72 h [3] | AUC(0-inf) ([2]; 0.98 mg/kg) | HSA (%) binding [4] | Cli mouse [5] | t1/2 in mouse microsomes ([5]; mouse microsomes) | Cli human [6] | t1/2 in human microsomes ([6]; human microsomes) | CC50 [7] | Tox50, cytotoxicity in HepG2 cells [8] | CHILogD pH 2 (pH 2) | CHILogD pH 7.4 (pH 7.4) | CHILogD pH 10.5 (pH 10.5) | PPB (%) [9]
COc1c(N2C[C@@H]3CCCN[C@@H]3C2)c(F)cc2c(=O)c(C(=O)O)cn(C3CC3)c12 [Moxifloxacin] | 28 (26–29) mg/kg | 9.4 µM·h | – | – | – | – | – | – | – | – | – | – | – | – | –
NNC(=O)c1ccncc1 [Isoniazid] | 0.95 (0.86–1.1 ) mg/kg | – | > 256 µM | 5.5 µM·h | – | – | – | – | – | – | – | – | – | – | –
COc1ccc(-c2cc(CN3CCOCC3)c(C)n2-c2ccc(C(C)C)cc2)cc1 [Compound 25] | – | – | – | – | 97.02% | 10.55 mL/min/g | <5 min | 0.5 mL/min/g | >30 min | 12.9 µM | 15.9 µM | 1.36 | 4.36 | 4.86 | >99.9%

— publication PMC3578785, “Improved BM212 MmpL3 Inhibitor Analogue Shows Efficacy in Acute Murine Model of Tuberculosis Infection” (PLoS ONE, 2013)
